“Also recorded” adds a separate entry of the source.
Experiments:
[1] = Body weight, bleomycin-induced mice, 24-h modeling; assay type: in vivo, C57 mice; conditions: for Body weight decreased by: day 1 to day 35
Description: (§1) Animals of 24-h modeling were randomly divided into 5 groups according to the table below, 3 animals per control group and 5 animals per test group.
(§2) Drug administration began 24 h or 7 d after modeling. […] The day of the first administration was counted as D1, the next day as D2, and so forth. The normal groups and Model groups were given 200 µL of normal saline daily by gavage administration.
(§3) All the animals were observed once daily during the experiment for death or dying, feces, ingestion, mental state and behavior and activity. Abnormalities were recorded in time. All the animals were weighed once before grouping and once before each dose.
(§4) In this experiment, 105 C57 mice were randomly selected and subjected to organ drip administration of a single dose of bleomycin at 2.5 mg/kg for 24 h or 7 d for induction. After 7 days of induction, 3 model mice were randomly selected and dissected to determine whether the modeling was successful. After modeling, the survival of the mice was recorded. The living states of the mice were observed and their body weight was measured at a fixed time.
A normal control group comprised 3 mice.

[2] = Body weight, bleomycin-induced mice, 7-d modeling; assay type: in vivo, C57 mice; conditions: for Body weight decreased by: day 1 to day 28
Description: (§5) Animals of 7-d modeling were randomly divided into 7 groups according to the table below, 6 animals per control group and 12 animals per test group.
as §2, §3, §4
A normal control group comprised 6 mice.

[3] = test system: bleomycin-induced mouse lung disease model; assay: Assay of lung tissues for hydroxyproline content, 24-h modeling; assay type: in vivo, C57 mice; conditions: day 35 of administration
Description: as §1, §2
[…] 2 mL of pre-cooled normal saline was added. The tissues were cut into as many pieces as possible and centrifuged at 2000 rpm/min for 2 min, and the supernatant was discarded. • 2. To the precipitate was added 1 mL of RIPA lysis buffer (mixed protease inhibitor Cocktail was added in a ratio of 1:100 before use, and the resulting mixture was preserved on ice). […]
(II) Protein concentration assay by BCA • 1. […] A proper BCA working solution was freshly prepared according to the quantity of the standard substance and samples. […] The plate was incubated at 37° C. for 30 min, and the absorbance at 570 nm was measured on a microplate reader. The sample protein concentration was calculated from the standard curve.
(III) HYP level assay • 1. […] To each well was added 50 µL of terminating solution, and the absorbance was immediately measured at a wavelength of 450 nm. […]

[4] = test system: inflammatory cells in bronchoalveolar lavage fluid; assay: Inflammatory cell assay of bronchoalveolar lavage fluid, 7-d modeling; assay type: in vivo, C57 mice
Description: as §5, §2
After the mouse was fixed, its trachea and chest cavity were exposed, and the trachea and the esophagus were bluntly separated with an ophthalmic curved forceps. Two sutures were made between the trachea and the esophagus. An intravenous trocar was inserted into the trachea and ligated at the site where it entered the trachea and at its distal end. A 1 mL syringe was connected to draw in 1 mL of pre-cooled PBS and infuse it into the lung tissue. Significant filling in the lung could be seen with the naked eye. The syringe was held for 10 s and withdrawal was performed. The infusion/withdrawal cycle was repeated 3 times. The withdrawn BALF was transferred to a clean EP tube and centrifuged at 4° C., and the supernatant was collected and preserved at -80° C. The cells were subjected to routine tests.
Upon the end of the administration, the leukocytes (lymphocytes, neutrophils and monocytes) in the bronchoalveolar lavage fluids of the mice in the 7-d modeling groups were classified and counted.

[5] = Toxic or side effects on mice on gavage administration; assay type: in vivo; conditions: BS 36, 90 and 180 mg/kg
Description: Accordingly, the above dosages were selected as the dosages for administration in this experiment,
as §3

[6] = Dex 1-1.5 mg/kg i.p. every two days, D1
[7] = Dex 1-1.5 mg/kg i.p. every two days, D7
[8] = Dex 1-1.5 mg/kg i.p. every two days, D14
[9] = Dex 1-1.5 mg/kg i.p. every two days, D21
[10] = Dex 1-1.5 mg/kg i.p. every two days, D28
[11] = Dex 1-1.5 mg/kg i.p. every two days

## C[C@@H]1C[C@H]2[C@@H]3CCC4=CC(=O)C=C[C@]4(C)[C@@]3(F)[C@@H](O)C[C@]2(C)[C@@]1(O)C(=O)CO [Dex, dexamethasone, reference compound]
[1]; [6]
  Body weight: 19.92 ± 1.38 g
[1]; [7]
  Body weight: 20.02 ± 0.96 g
[1]; [8]
  Body weight: 19.24 ± 0.95 g
[1]; [9]
  Body weight: 18.90 ± 0.78 g
[1]; [10]
  Body weight: 18.56 ± 0.71 g
[1]; Dex 1-1.5 mg/kg i.p. every two days, D35
  Body weight: 18.36 ± 0.66 g
[1]; [11]
  Body weight decreased by: 8.48%
[2]; [6]
  Body weight: 17.79 ± 0.89 g
[2]; [7]
  Body weight: 17.61 ± 1.02 g
[2]; [8]
  Body weight: 17.45 ± 0.96 g
[2]; [9]
  Body weight: 17.43 ± 0.92 g
[2]; [10]
  Body weight: 17.38 ± 0.85 g
[2]; [11]
  Body weight decreased by: 2.42%
[3]; [11]
  HY7P, hydroxyproline content in the lungs: 2.25 ± 0.31 µg/mL
[4]; [11]
  Absolute leukocyte count in bronchoalveolar lavage fluid: 0.57±0.02 10^9/L
  Absolute lymphocyte count in bronchoalveolar lavage fluid: 0.46±0.03 10^9/L
  Absolute monocyte count in bronchoalveolar lavage fluid: 0.03±0.01 10^9/L
  Absolute neutrophil count in bronchoalveolar lavage fluid: 0.0±0.01 10^9/L
  Percent reduction in leukocytes in bronchoalveolar lavage fluid with respect to the Model group: 45.32%
  Percent reduction in lymphocytes in bronchoalveolar lavage fluid with respect to the Model group: 47.51%
  Percent reduction in monocytes in bronchoalveolar lavage fluid with respect to the Model group: 46.43%
  Percent reduction in neutrophils in bronchoalveolar lavage fluid with respect to the Model group: 68.52%

## O=c1c2ccccc2[se]n1CCCCn1[se]c2ccccc2c1=O [BS, 1,4-[bis(1,2-benzisoselenazol-3(2H)-one)]butane]
[1]; BS 90 mg/kg gavage daily, D1
  Body weight: 20.34 ± 1.01 g
[1]; BS 90 mg/kg gavage daily, D7
  Body weight: 19.50 ± 1.35 g
[1]; BS 90 mg/kg gavage daily, D14
  Body weight: 18.84 ± 1.70 g
[1]; BS 90 mg/kg gavage daily, D21
  Body weight: 18.52 ± 1.75 g
[1]; BS 90 mg/kg gavage daily, D28
  Body weight: 18.30 ± 1.60 g
[1]; BS 90 mg/kg gavage daily, D35
  Body weight: 18.02 ± 1.75 g
[1]; BS 90 mg/kg gavage daily
  Body weight decreased by: 13.58%
[2]; BSH: BS 180 mg/kg gavage daily, D1
  Body weight: 19.88 ± 0.47 g
[2]; BSH: BS 180 mg/kg gavage daily, D7
  Body weight: 19.45 ± 0.62 g
[2]; BSH: BS 180 mg/kg gavage daily, D14
  Body weight: 19.26 ± 0.44 g
[2]; BSH: BS 180 mg/kg gavage daily, D21
  Body weight: 19.13 ± 0.54 g
[2]; BSH: BS 180 mg/kg gavage daily, D28
  Body weight: 19.19 ± 0.71 g
[2]; BSH: BS 180 mg/kg gavage daily
  Body weight decreased by: 3.62%
[2]; BSL: BS 36 mg/kg gavage daily, D1
  Body weight: 17.80 ± 0.72 g
[2]; BSL: BS 36 mg/kg gavage daily, D7
  Body weight: 17.49 ± 0.84 g
[2]; BSL: BS 36 mg/kg gavage daily, D14
  Body weight: 17.37 ± 0.80 g
[2]; BSL: BS 36 mg/kg gavage daily, D21
  Body weight: 17.23 ± 0.76 g
[2]; BSL: BS 36 mg/kg gavage daily, D28
  Body weight: 17.23 ± 0.82 g
[2]; BSL: BS 36 mg/kg gavage daily
  Body weight decreased by: 3.39%
[2]; BSM: BS 90 mg/kg gavage daily, D1
  Body weight: 18.20 ± 0.87 g
[2]; BSM: BS 90 mg/kg gavage daily, D7
  Body weight: 17.89 ± 0.92 g
[2]; BSM: BS 90 mg/kg gavage daily, D14
  Body weight: 17.63 ± 0.79 g
[2]; BSM: BS 90 mg/kg gavage daily, D21
  Body weight: 17.46 ± 0.73 g
[2]; BSM: BS 90 mg/kg gavage daily, D28
  Body weight: 17.41 ± 0.72 g
[2]; BSM: BS 90 mg/kg gavage daily
  Body weight decreased by: 4.53%
[5]
  Toxic or side effects (in words): no toxic and side effects; also recorded: no significant toxic or side effects
[3]; BS 90 mg/kg gavage daily
  HY7P, hydroxyproline content in the lungs: 2.17 ± 0.19 µg/mL
[4]; BS 180 mg/kg, better than Dex (1-1.5 mg/kg)
  Effect on pulmonary inflammation (in words): significantly ameliorate pulmonary inflammation
[4]; BSH: BS 180 mg/kg gavage daily
  Absolute leukocyte count in bronchoalveolar lavage fluid: 0.43±0.04 10^9/L
  Absolute lymphocyte count in bronchoalveolar lavage fluid: 0.34±0.03 10^9/L
  Absolute monocyte count in bronchoalveolar lavage fluid: 0.02±0.00 10^9/L
  Absolute neutrophil count in bronchoalveolar lavage fluid: 0.02±0.01 10^9/L
  Percent reduction in leukocytes in bronchoalveolar lavage fluid with respect to the Model group: 58.39%
  Percent reduction in lymphocytes in bronchoalveolar lavage fluid with respect to the Model group: 60.73%
  Percent reduction in monocytes in bronchoalveolar lavage fluid with respect to the Model group: 57.14%
  Percent reduction in neutrophils in bronchoalveolar lavage fluid with respect to the Model group: 74.07%
[4]; BSL: BS 36 mg/kg gavage daily
  Absolute leukocyte count in bronchoalveolar lavage fluid: 0.87±0.04 10^9/L
  Absolute lymphocyte count in bronchoalveolar lavage fluid: 0.70±0.03 10^9/L
  Absolute monocyte count in bronchoalveolar lavage fluid: 0.04±0.01 10^9/L
  Absolute neutrophil count in bronchoalveolar lavage fluid: 0.08±0.01 10^9/L
  Percent reduction in leukocytes in bronchoalveolar lavage fluid with respect to the Model group: 16.29%
  Percent reduction in lymphocytes in bronchoalveolar lavage fluid with respect to the Model group: 19.54%
  Percent reduction in monocytes in bronchoalveolar lavage fluid with respect to the Model group: 25.00%
  Percent reduction in neutrophils in bronchoalveolar lavage fluid with respect to the Model group: 7.41%
[4]; BSM: BS 90 mg/kg gavage daily
  Absolute leukocyte count in bronchoalveolar lavage fluid: 0.69±0.06 10^9/L
  Absolute lymphocyte count in bronchoalveolar lavage fluid: 0.56±0.05 10^9/L
  Absolute monocyte count in bronchoalveolar lavage fluid: 00.3±0.01 10^9/L
  Absolute neutrophil count in bronchoalveolar lavage fluid: 0.08±0.01 10^9/L
  Percent reduction in leukocytes in bronchoalveolar lavage fluid with respect to the Model group: 32.90%
  Percent reduction in lymphocytes in bronchoalveolar lavage fluid with respect to the Model group: 35.63%
  Percent reduction in monocytes in bronchoalveolar lavage fluid with respect to the Model group: 42.86%
  Percent reduction in neutrophils in bronchoalveolar lavage fluid with respect to the Model group: 16.67%

Reference: patent US20230210819A1, “USE OF BENZISOSELAZOLE DERIVATIVE FOR ANTI-CORONAVIRUS AND CONTROL OF INTERSTITIAL LUNG DISEASE (ILD) RELATED TO CORONAVIRUS” (SHANGHAI YUANXI MEDICINE CORP., priority 2020, published 2023)
